Data set [1] in a line: Neurological symptoms in animal experiments. Type of data set: in vivo, animals. The source says:
(§1) In vitro, Indibulin exerts significant antitumor activity against a variety of malignancies (e.g., prostate, brain, breast, pancreas, and colon). […] Based on its mechanism of action, it is expected to target all types of solid tumors. […] Another advantage for further development is its easy synthesis, in contrast to other tubulin-inhibitory compounds.

Data set [2] in a line: Solubility of Indibulin in solvents. Type of data set: physicochemical. The source says:
(§2) Indibulin is obtained by chemical synthesis as a white crystalline powder. Its solubility in hydrophilic solvents is poor. […] Due to these properties, the bioavailability of pure Indibulin is very low, as is Indibulin's bioavailability in common pharmaceutical dosage forms, e.g., powder, granula, tablets or capsules.
However, these organic solvents cannot be used for application in humans due to their toxicity.

Data set [3] relates to microtubules. The data set is described as follows: Polymerization of microtubules in a cell-free system. It counts as biochemical. The source says:
(§3) Indibulin is a synthetic small molecule tubulin inhibitor with significant antitumor activity in vitro and in vivo. […] Furthermore, the molecule selectively blocks cell cycle progression at metaphase.

Data set [4] is described as follows: Tolerability in preclinical experiments in rodents. It counts as in vivo. The following applies: highly effective doses.
Description: as §1

The nature of data set [5]: Bioavailability of pure Indibulin. Type of data set: in vivo.
Description: as §2

Data set [6] concerns microtubules in tumor cells. The data set is described as follows: Polymerization of microtubules in tumor cells. It counts as cell-based.
Description: as §3

For `O=C(Nc1ccncc1)C(=O)c1cn(Cc2ccc(Cl)cc2)c2ccccc12` [Indibulin, N-(pyridine-4-yl)-[1-(4-chlorobenzyl)-indole-3-yl]glyoxylic acid amide], the neurological symptoms result in data set [1] was “No neurological symptoms”. The “solubility in organic solvents” value in data set [2] (dimethylformamide, dimethylsulfoxide and N-methylpyrrolidone) is reported as “sufficient solubility”. In data set [2] (roughly >50% w/v acetic acid or lactic acid), the “solubility in highly concentrated organic acids” value is listed as “relatively good solvents”. In data set [2] (water, methanol, ethanol or 2-propanol), the “solubility in hydrophilic solvents” value is given as “practically insoluble”. For the same compound, the polymerization of microtubules result in data set [3] and in data set [6] was “inhibits polymerization of microtubules” throughout. For the same compound, the tolerability result in data set [4] was “very well tolerated”. Moreover, in data set [5], the bioavailability result is “very low”.

The values above are taken from patent US20060280787A1, “Pharmaceutical formulation of the tubulin inhibitor indibulin for oral administration with improved pharmacokinetic properties, and process for the manufacture thereof” (priority 2005, published 2006).
